Laboratory results as given in patent publication US11285226B2, “Aryl ethene derivative and pharmaceutical composition containing same as active ingredient” (priority 2016, dated 2022).
Like-named read-outs stand apart in the source and are kept apart here.

Tests used:
[1] = format: in vitro ADME, human; details: 1 μM, 30 minutes, 37° C.
Method: 2) Microsomal Stability Evaluation
(§2) Four liver microsomes (Human, Dog, Rat, Mouse 0.5 mg/ml) with a 0.1 M phosphate buffer solution (pH 7.4), and the arylethene derivative of the present invention were added to a concentration of 1 μM, culturing was performed at 37° C. for 5 minutes in advance, a NADPH regeneration system solution was added thereto, and culturing was performed at 37° C. for 30 minutes. Thereafter, in order to complete the reaction, an acetonitrile solution containing an internal standard material (chlorpropamide) was added thereto, centrifugation (14,000 rpm, 4° C.) was performed for 5 minutes, and a supernatant was injected into a LC-MS/MS system to analyze the substrate drug, thereby evaluating metabolism stability to the arylethene derivative of the present invention.

[2] = format: in vitro ADME, dog; details: 1 μM, 30 minutes, 37° C.
Method: 2) Microsomal Stability Evaluation
as §2

CYP3A4 = CYP3A4 (Homo sapiens (Human), UniProt P08684); assay: Cytochrome P450 activity inhibition, CYP3A4; format: in vitro ADME; details: 10 μM, human liver microsomes
Method: Thereafter, in order to complete the reaction, an acetonitrile solution containing an internal standard material (Terfenadine) was added thereto, centrifugation (14,000 rpm, 4° C.) was performed for 5 minutes, and a supernatant was injected into a LC-MS/MS system to analyze the metabolites of the substrate drug, thereby evaluating drug metabolism enzyme inhibition by the arylethene derivative of the present invention.

CYP1A2 = CYP1A2 (Homo sapiens (Human), UniProt P05177); assay: Cytochrome P450 activity inhibition, CYP1A2; format: in vitro ADME; details: 10 μM, human liver microsomes
Excerpt: (§1) 1) Cytochrome P450 (CYP450) Activity Inhibition Evaluation

CYP2D6 = CYP2D6 (Homo sapiens (Human), UniProt P10635); assay: Cytochrome P450 activity inhibition, CYP2D6; format: in vitro ADME; details: 10 μM, human liver microsomes
Excerpt: as §1

ERR alpha LBD = ERR alpha LBD (Homo sapiens (Human), UniProt P11474); details: read-out: Binding Assay, IC50 ERRα
Method: (§3) The arylethene derivative of the present invention was sequentially added to a 384 well plate from a concentration of 10 μM to a final concentration of two-fold dilution. […] After all reagents were added, a reaction was carried out with gentle shaking at 20° C. for 1 hour, and after the reaction, a binding activity was measured by a TR-FRET method.

CYP2C9 = CYP2C9 (Homo sapiens (Human), UniProt P11712); assay: Cytochrome P450 activity inhibition, CYP2C9; format: in vitro ADME; details: 10 μM, human liver microsomes
Excerpt: as §1

CYP2C19 = CYP2C19 (Homo sapiens (Human), UniProt P33261); assay: Cytochrome P450 activity inhibition, CYP2C19; format: in vitro ADME; details: 10 μM, human liver microsomes
Excerpt: as §1

ERRγ = format: cell-based; details: for Functional Assay, Cpds/Ref 5182: activity relative to reference compound GSK5182; for Functional Assay at 10 μM (% of control), Cpds: AD293, 24 hours
Method: AD293 was cultured in a 24-well plate for 24 hours, using a DMEM High glucose culture medium (Hyclone, USA) to which 0.5% FBS was added at a concentration of 9×10^4/well. The culture medium was replaced with a DMEM High glucose culture medium to which 10% FBS was added, treatment was performed with a mixture of a TransIT-LT1 transfection reagent (Minis, USA) and pCMX-Gal4-ERRγ, pFR-luciferase reporter plasmid, pCMV-β-gal, and culturing was performed for 24 hours. Thereafter, a luciferase activity assay and a β-gal assay were performed, respectively, with a lysate obtained after treatment with the arylethene derivative of the present invention for 24 hours. All results were derived from three or more independent repetitive experiments.

[3] = format: in vitro ADME, rat; details: 1 μM, 30 minutes, 37° C.
Method: 2) Microsomal Stability Evaluation
as §2

[4] = format: in vivo; details: rat; for BA: PO 10 mg/kg vs IV 1 mg/kg
Method: An oral administration group fasts the day before.
Blood of each animal is collected at 0 hour.
Into a tail vein of an intravenous administration group (IV), a drug is injected at a dose of 1 mg/kg (syringe).
To an oral administration group (PO), a drug is orally administered at a dose of 10 mg/kg (oral zondec)
After administration, blood of the intravenous administration group was collected through a jugular vein 8 times at 0.08, 0.25, 0.5, 1, 2, 4, 6, and 8 hours. One collected blood amount is 400 to 500 ul.
After administration, blood of the oral administration group was collected through a jugular vein 6 times at 0.25, 0.5, 1, 4, 6 and 8 hours. One collected blood amount is 400 to 500 ul.
Supernatant plasma is collected by a centrifuge.
The supernatant plasma was injected into a LC-MS/MS system and the drug is analyzed.

[5] = format: in vitro ADME; details: PBS pH 7.4, 25° C., 5 hours
Method: 3) Parallel Artificial Membrane Permeability Assay (PAMPA) Evaluation
PAMPA is a method which has been developed for testing cell membrane permeability of a material in a test tube, and has been performed using a lipid tri-layer PVDF membrane available from Corning Gentest (NY, US), the used reagents were all purchased from Sigma (MO, US). First, a test material is diluted in PBS (pH 7.4) to a final concentration of 10 mM, 300 mL of the solution is added to the bottom well of a 96-transwell equipped with a PVDF membrane, and 200 mL of PBS is added to the upper well. Then, a plate is reacted at 25° C. for 5 hours, 20 mL of the solution in each well is transferred to a new container, and 80 mL of acetonitrile containing an internal standard material (4 mM chloropropamide) is added thereto. A concentration of the material in the solution is analyzed using LC-MS/MS (ThermoFisher Scientific, MO, US), and the transmittance of the material is calculated according to the equation reported in the reference document. • Reference document: A novel design of artificial membrane for improving the PAMPA model.

[6] = biological target: ER alpha ligand-binding domain (LBD) (Homo sapiens (Human), UniProt P03372); details: beta-estradiol 4 nM as agonist; read-out: Binding Assay, IC50 ERα
Method: as §3

[7] = format: in vitro ADME, mouse; details: 1 μM, 30 minutes, 37° C.
Method: 2) Microsomal Stability Evaluation
as §2

pERK1/2 in CAL62 cells = assay: Western blot, phosphorylated ERK1/2 (MAP kinase); format: cell-based; details: selective MEK inhibitor
ATC mouse tumor model = details: cited from earlier work
CAL-62 cells = assay: 125I uptake assay in anaplastic thyroid cancer cells; format: cell-based

Chain of ERR alpha LBD (P11474 193-421, species assumed): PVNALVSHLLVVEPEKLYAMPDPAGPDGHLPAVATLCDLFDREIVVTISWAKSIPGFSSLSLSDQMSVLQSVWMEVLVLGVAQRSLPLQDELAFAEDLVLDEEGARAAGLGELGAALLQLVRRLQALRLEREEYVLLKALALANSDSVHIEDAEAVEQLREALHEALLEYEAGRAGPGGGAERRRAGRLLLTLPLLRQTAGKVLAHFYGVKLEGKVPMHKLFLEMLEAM
Chain of CYP2C9 (P11712 whole entry): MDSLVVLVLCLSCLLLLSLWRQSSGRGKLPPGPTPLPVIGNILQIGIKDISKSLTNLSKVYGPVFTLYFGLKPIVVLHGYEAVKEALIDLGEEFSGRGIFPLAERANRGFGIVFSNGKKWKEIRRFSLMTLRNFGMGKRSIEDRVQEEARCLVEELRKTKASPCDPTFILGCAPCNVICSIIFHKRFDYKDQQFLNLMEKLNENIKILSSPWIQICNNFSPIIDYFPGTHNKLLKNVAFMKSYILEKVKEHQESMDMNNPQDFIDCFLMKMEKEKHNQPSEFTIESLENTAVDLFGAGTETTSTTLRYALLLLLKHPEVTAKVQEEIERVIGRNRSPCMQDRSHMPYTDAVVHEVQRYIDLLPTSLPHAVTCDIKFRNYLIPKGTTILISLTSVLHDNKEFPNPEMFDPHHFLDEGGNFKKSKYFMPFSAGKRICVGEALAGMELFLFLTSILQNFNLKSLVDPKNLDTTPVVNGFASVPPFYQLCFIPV
Chain of CYP3A4 (P08684 whole entry): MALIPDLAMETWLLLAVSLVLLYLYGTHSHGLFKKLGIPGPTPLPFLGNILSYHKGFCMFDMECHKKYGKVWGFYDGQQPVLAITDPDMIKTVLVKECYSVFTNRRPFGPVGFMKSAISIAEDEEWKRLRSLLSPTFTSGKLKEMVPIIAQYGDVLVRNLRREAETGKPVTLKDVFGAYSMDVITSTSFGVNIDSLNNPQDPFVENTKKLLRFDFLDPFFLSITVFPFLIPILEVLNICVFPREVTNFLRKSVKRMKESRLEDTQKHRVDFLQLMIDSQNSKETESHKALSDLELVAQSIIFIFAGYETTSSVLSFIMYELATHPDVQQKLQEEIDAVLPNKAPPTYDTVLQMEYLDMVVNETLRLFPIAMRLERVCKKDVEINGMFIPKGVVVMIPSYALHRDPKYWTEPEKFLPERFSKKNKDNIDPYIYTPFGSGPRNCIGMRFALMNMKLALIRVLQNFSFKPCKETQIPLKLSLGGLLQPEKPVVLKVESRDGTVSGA
Chain of CYP2C19 (P33261 whole entry): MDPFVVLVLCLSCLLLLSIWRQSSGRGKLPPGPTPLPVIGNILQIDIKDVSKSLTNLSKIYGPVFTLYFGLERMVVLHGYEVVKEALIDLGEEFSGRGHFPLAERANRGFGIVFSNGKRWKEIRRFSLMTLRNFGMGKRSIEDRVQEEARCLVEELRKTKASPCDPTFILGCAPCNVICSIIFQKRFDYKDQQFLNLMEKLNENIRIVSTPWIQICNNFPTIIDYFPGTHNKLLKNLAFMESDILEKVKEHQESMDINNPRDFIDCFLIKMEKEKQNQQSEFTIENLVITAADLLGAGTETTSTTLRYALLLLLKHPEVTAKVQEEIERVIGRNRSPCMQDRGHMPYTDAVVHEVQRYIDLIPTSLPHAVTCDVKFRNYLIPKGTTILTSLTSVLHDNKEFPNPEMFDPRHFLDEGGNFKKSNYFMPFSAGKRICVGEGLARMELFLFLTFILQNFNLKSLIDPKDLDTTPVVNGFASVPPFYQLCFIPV
Chain of CYP1A2 (P05177 whole entry): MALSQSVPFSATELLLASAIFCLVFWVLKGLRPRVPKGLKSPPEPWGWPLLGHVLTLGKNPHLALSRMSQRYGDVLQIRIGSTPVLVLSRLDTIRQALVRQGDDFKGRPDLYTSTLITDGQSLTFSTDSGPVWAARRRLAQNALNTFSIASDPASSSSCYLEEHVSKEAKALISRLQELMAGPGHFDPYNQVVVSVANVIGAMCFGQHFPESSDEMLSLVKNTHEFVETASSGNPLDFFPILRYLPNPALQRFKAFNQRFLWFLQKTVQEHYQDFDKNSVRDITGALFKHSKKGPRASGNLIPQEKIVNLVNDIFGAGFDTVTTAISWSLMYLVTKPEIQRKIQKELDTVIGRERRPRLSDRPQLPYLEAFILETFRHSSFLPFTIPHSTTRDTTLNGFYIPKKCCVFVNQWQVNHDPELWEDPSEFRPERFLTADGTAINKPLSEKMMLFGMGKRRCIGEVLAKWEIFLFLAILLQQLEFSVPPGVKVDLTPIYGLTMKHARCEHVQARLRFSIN
Chain of CYP2D6 (P10635 whole entry): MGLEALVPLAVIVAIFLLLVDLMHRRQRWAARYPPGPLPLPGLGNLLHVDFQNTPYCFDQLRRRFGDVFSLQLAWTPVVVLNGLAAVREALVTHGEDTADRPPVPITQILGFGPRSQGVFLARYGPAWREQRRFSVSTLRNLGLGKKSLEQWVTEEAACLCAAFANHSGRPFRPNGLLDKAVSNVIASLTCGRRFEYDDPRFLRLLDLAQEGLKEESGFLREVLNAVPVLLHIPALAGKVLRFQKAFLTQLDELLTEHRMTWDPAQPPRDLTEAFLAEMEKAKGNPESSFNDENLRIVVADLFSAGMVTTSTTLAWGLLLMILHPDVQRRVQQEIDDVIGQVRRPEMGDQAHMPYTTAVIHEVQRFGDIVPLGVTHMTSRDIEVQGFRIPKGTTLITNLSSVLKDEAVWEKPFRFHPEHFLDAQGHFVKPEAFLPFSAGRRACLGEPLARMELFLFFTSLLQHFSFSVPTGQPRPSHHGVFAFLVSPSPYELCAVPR
Chain of ER alpha ligand-binding domain (LBD) (P03372 whole entry, looked up, the tested form may be a part): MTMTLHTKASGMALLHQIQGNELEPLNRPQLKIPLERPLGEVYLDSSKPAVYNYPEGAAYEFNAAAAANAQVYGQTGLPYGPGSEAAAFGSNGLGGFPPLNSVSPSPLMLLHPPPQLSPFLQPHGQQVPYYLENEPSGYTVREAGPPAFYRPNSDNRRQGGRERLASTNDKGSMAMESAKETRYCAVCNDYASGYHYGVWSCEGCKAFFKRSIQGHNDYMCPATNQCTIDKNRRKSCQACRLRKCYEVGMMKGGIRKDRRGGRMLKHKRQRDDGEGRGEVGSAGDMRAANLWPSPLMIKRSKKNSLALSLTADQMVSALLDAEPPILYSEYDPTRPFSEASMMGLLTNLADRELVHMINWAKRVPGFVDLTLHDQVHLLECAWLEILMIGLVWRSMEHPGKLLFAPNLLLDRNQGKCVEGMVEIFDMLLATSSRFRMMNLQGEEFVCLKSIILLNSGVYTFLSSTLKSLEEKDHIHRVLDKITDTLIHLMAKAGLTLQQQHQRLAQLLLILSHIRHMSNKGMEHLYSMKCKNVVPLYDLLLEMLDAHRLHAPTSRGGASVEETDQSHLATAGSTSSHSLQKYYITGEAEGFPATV

Row | SMILES | MS (Microsomal Stability) (%) human [1] | CYP inhibition (% of control) 1A2 (CYP1A2) | CYP inhibition (% of control) 2C9 (CYP2C9) | CYP inhibition (% of control) 2C19 (CYP2C19) | Functional Assay, Cpds/Ref 5182 (ERRγ) | MS (Microsomal Stability) (%) rat [3] | further results
1 | CC(C)N1CCC(c2ccc(/C(=C(/CCCO)c3ccccc3)c3cccc(O)c3)cc2)C1 (racemic) [Compound 22u] | 40.0% | – | – | – | – | – | MS (Microsomal Stability) (%) dog [2]: 10.0%
2 | CN1CCC[C@H]1COc1ccc(/C(=C(/CCCO)c2ccccc2)c2ccc(O)cc2)cc1 [Compound 6h] | – | 103 % of control | 62.8 % of control | 83.2 % of control | – | – | CYP inhibition (% of control) 3A4 (CYP3A4): 75.4 % of control; CYP inhibition (% of control) 2D6 (CYP2D6): 90.7 % of control; IC50 (ERR alpha LBD): > 10 µM
3 | Cl.Cl.OCCC/C(=C(\c1ccc(O)cc1)c1ccc(OCCN2CCNCC2)cc1)c1ccccc1 [Compound 7a, (Z)-4-(5-hydroxy-2-phenyl-1-(4-(2-(piperazin-1-yl)ethoxy)phenyl)pent-1-en-1-yl)phenol 2hydrochloride Salt] | 49.0% | – | – | – | 0.86 | – | –
4 | Cc1ccc(/C(=C(\CCCO)c2ccccc2)c2ccc(N3CCN(C(C)C)CC3)cc2)cc1 [Compound 18b] | – | – | – | – | 0.78 | 40.0% | CYP inhibition (% of control) 3A4 (CYP3A4): 53 % of control; BA [4]: 8.7%
5 | CN1CCN(c2ccc(/C(=C(/CCCO)c3ccccc3)c3ccc(Br)cc3)cc2)CC1 [Compound 18e] | – | >100 % of control | 91.3 % of control | 84.6 % of control | 0.89 | – | CYP inhibition (% of control) 3A4 (CYP3A4): 84 % of control; CYP inhibition (% of control) 2D6 (CYP2D6): >100 % of control; IC50 (ERR alpha LBD): > 10 µM; AUCINF ([4]; IV 1 mg/kg): 0.06 μMh; AUCall ([4]; IV 1 mg/kg): 0.06 μMh; Vss ([4]; IV 1 mg/kg): 39.1 L/kg; t1/2 ([4]; IV 1 mg/kg): 0.8 h; AUCINF ([4]; PO 10 mg/kg): 0.09 μMh; AUCall ([4]; PO 10 mg/kg): 0.07 μMh; Cmax ([4]; PO 10 mg/kg): 0.01 µM; Tmax ([4]; PO 10 mg/kg): 2.8 h; BA [4]: 11.5%; Functional Assay at 10 μM (% of control), Cpds (ERRγ): 2.6 % of control; Permeability Pampa [5]: 1.11 10^−6 cm/s; IC50 [6]: > 10 µM
6 | CCN1CCN(c2ccc(/C(=C(/CCCO)c3ccccc3)c3ccc(C)cc3)cc2)CC1 [Compound 18j] | – | >100 % of control | 87 % of control | 74 % of control | – | – | MS (Microsomal Stability) (%) dog [2]: 58.0%
7 | Cc1ccc(/C(=C(\CCCO)c2ccccc2)c2ccc(N3CCNCC3)cc2)cc1 [Compound 20b] | 44% | – | – | – | 0.88 | – | MS (Microsomal Stability) (%) dog [2]: 58%
8 | Cc1ccc(/C(=C(\CCCO)c2ccccc2)c2ccc(C3CNC3)cc2)cc1 [Compound 20d] | 83% | – | – | – | 0.81 | 54% | –
9 | Cc1ccc(/C(=C(\CCCO)c2ccccc2)c2ccc(C3CCNCC3)cc2)cc1 [Compound 20k] | – | – | – | – | – | 89.0% | –
10 | Cc1ccc(/C(=C(\CCCO)c2ccccc2)c2ccc(C3CCN(C)CC3)cc2)cc1 [Compound 22f] | 97.0% | – | – | – | – | 80.0% | –
11 | CC(C)N1CCC(c2ccc(/C(=C(/CCCO)c3ccccc3)c3ccc(O)cc3)cc2)CC1 [Compound 22k] | – | >100 % of control | 97 % of control | >100 % of control | 0.83 | 69.0% | Functional Assay at 10 μM (% of control), Cpds (ERRγ): 0.77 % of control
12 | CC(C)N1CCC(c2ccc(/C(=C(/CCCO)c3ccccc3)c3cccc(O)c3)cc2)CC1 [Compound 22m] | – | 97 % of control | – | >100 % of control | – | – | MS (Microsomal Stability) (%) dog [2]: 55.0%
13 | OCCC/C(=C(\c1ccc(O)cc1)c1ccc(N2CCN(C3CCCC3)CC2)cc1)c1ccccc1 [Compound 22n] | – | 99 % of control | – | 83 % of control | – | – | MS (Microsomal Stability) (%) dog [2]: 72.0%
14 | OCCC/C(=C(/c1ccc(C2CCN(C3CC3)CC2)cc1)c1cccc(O)c1)c1ccccc1 [Compound 22r] | 62.0% | >100 % of control | >100 % of control | >100 % of control | – | – | –
15 | Nc1ccc(/C(=C(\CCCO)c2ccccc2)c2ccc(C3CCN(C4CC4)CC3)cc2)cc1 [Compound 26d] | – | >100 % of control | – | >100 % of control | – | – | Permeability Pampa [5]: 1.04 10^−6 cm/s
16 | CC(C)N1CCN(c2ccc(/C(=C(/CCCO)c3ccccc3)c3ccc(NS(C)(=O)=O)cc3)cc2)CC1 [Compound 27a, (E)-N-(4-(5-hydroxy-1-(4-(4-isopropylpiperazin-1-yl)phenyl)-2-phenylpent-1-en-1-yl)phenyl)methanesulfonamide] | – | – | – | – | – | 65.0% | –
17 | OCCC/C(=C(\c1ccc(O)cc1)c1ccc(OCCN2C[C@H]3C[C@H]3[C@H]2CO)cc1)c1ccccc1 [Compound 38d] | 6.9% | 79.2 % of control | 55.3 % of control | 58.8 % of control | 0.77 | 11.7% | CYP inhibition (% of control) 3A4 (CYP3A4): 57.6 % of control; CYP inhibition (% of control) 2D6 (CYP2D6): 54.3 % of control; MS (Microsomal Stability) (%) mouse [7]: 11.8%; IC50 (ERR alpha LBD): > 10 µM
18 | OCCC/C(=C(\c1ccc(O)cc1)c1ccc(OCCN2C[C@H]3CNC[C@H]3C2)cc1)c1ccccc1 [Compound 40, 4-((Z)-1-(4-(2-((3aR,6aS)-hexahydropyrrolo[3,4-c]pyrrol-2(1H)-yl)ethoxy)phenyl)-5-hydroxy-2-phenylpent-1-en-1-yl)phenol] | – | – | – | – | 0.96 | 72.0% | –
19 | C[Si](C)(CN1CCCCC1)c1ccc(/C(=C(/CCCO)c2ccccc2)c2ccc(O)cc2)cc1 [Compound 42b] | – | – | – | – | – | – | Permeability Pampa [5]: 0.1 10^−6 cm/s
20 | N#CC(=C(/N)Sc1ccccc1N)/C(C#N)=C(\N)Sc1ccccc1N [Compound U0126, U0126] | – | – | – | – | – | – | inhibition of the relative increase of phosphorylated ERK1 and ERK2 by compound 18a (pERK1/2 in CAL62 cells): completely inhibited
21 | CN(C)CCOc1ccc(/C(=C(/CCCO)c2ccccc2)c2ccc(O)cc2)cc1 [GSK5182, reference compound] | – | 84.6 % of control | 72.9 % of control | 78.2 % of control | – | – | CYP inhibition (% of control) 3A4 (CYP3A4): 83 % of control; radioiodine uptake in the tumor (ATC mouse tumor model): not increased; CYP inhibition (% of control) 2D6 (CYP2D6): 82.3 % of control; BA [4]: 8.4%
22 | [K+].[O-][Cl+3]([O-])([O-])[O-] [KClO4, reference compound] | – | – | – | – | – | – | block of radioactive iodine uptake increased in compound 18a-treated cells (CAL-62 cells; co-incubated with compound 18a-treated CAL62 cells): completely blocks
23 | COc1cccc(-c2cc(=O)c3ccccc3o2)c1N [PD98059, reference compound] | – | – | – | – | – | – | inhibition of the radioactive iodine uptake increase by compound 18a (CAL-62 cells; selective MEK inhibitor, pre-incubated 30 minutes): completely inhibited; inhibition of the relative increase of phosphorylated ERK1 and ERK2 by compound 18a (pERK1/2 in CAL62 cells): completely inhibited
